Results reported in article PMC8979514 (Journal of Enzyme Inhibition and Medicinal Chemistry, 2022).

What was measured:
in vitro [1] = format: cell-based, human; conditions: human, Cells viability of SH-SY5Y cell line (% of control)
Protocol: (§1) Human neuroblastoma SH-SY5Y and human liver hepatocellular HepG2 cell lines were purchased from the American Type Culture Collections (ATCC). SH-SY5Y cells were cultured in a Dulbecco’s Modified Eagle Medium (DMEM) supplemented with Ham F12 medium (ratio 1:1), whereas HepG2 cells in Eagle’s Minimum Essential Medium (EMEM). Additionally, all culture medium was supplemented with 10% foetal bovine serum (FBS), streptomycin (100 µg/mL) and penicillin (100 U/mL). The cells were seeded into flasks containing supplemented medium and maintained in a humidified atmosphere of 5% CO2 and 95% air at 37 °C. The cell viability assay was performed in confluence of the cells in serum free medium (without FBS) was 80–90%.
(§2) […]. SH-SY5Y cells and HepG2 cells were seeded on 96-well plate with a density of 27–29 × 10^3 cells/well and 12–14 × 10^3/well respectively. […]. The DMSO concentration of every well in final dilutions was equal to or less than 0.1%. After incubation with compounds, MTT was added and 2 h later, the absorbance was measured at 492 nm. The result was expressed as the percentage of control cells (cultured in serum-free medium containing 0.1% of DMSO) which was set to 100%. The MTT test was performed in three independent replications. Data analysis was performed by using GraphPad Prism 5.0 Software.
SH-SY5Y a standard cell line used for determining neurocytotoxic effect of potential drug. Moreover it is well-established in vitro model of neurodegenerative disorders. […].

in vitro [2] = format: cell-based, human; conditions: human
Protocol: as §1, §2
. HepG2 is a commonly used in vitro model for the investigation of hepatocytotoxic effect of xenobiotics [40]^,[41]. In our study, we evaluated the toxicity of our new analogs against […]. […]

[3] = cited from earlier work

`Nc1c2c(nc3ccccc13)CCCC2` [Tacrine, 9-amino-1,2,3,4-tetrahydroacridine, reference compound] gave a viability at 12.5 µM (in vitro [1]) of 98.7 ± 4.5%, a viability at 50 µM (in vitro [1]) of 97.2 ± 2.1% and a viability at 100 µM (in vitro [1]) of 68.9 ± 2.9%. The IC50 (in vitro [2]) was 190 µM and the “bioavailability of the oral formulation” value [3] was 9.9–36.4%.
